Assays:
Italian ryegrass = test: Test C preemergence; assay type: in vivo, Lolium multiflorum; conditions: for Plant response rating, Ryegrass, Italian: Preemergence, 31 g ai/ha, scale 0 to 100, 0 no effect, 100 complete control
Outline: (§1)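 Injury was assessed visually against controls 13 to 15 days after application, with 0 meaning no effect and 100 full control; missing entries are shown as a dash. Preemergence sprays hit seeded loam–sand soil, postemergence sprays hit 1- to 4-leaf plants.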

wild oat = test: Test C postemergence; assay type: in vivo, Avena fatua
Outline: as §1

corn [1] = test: Test C postemergence; assay type: in vivo, Zea mays
Outline: as §1

ragweed = test: Test C preemergence; assay type: in vivo, Ambrosia elatior; conditions: for Plant response rating, Ragweed: Preemergence, 31 g ai/ha, scale 0 to 100, 0 no effect, 100 complete control
Outline: as §1

morningglory = test: Test C postemergence; assay type: in vivo, Ipomoea coccinea
Outline: as §1

Heteranthera limosa = test: Test B flooded paddy test; assay type: in vivo; conditions: Flood, 250 g ai/ha, 0 to 100 scale where 0 is no effect and 100 is complete control
Outline: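 Scores from 0 (no effect) to 100 (complete control) are visual comparisons with controls, taken 13 to 15 days after compound was applied into floodwater 3 cm deep around 2-leaf plants.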

kochia = test: Test C postemergence; assay type: in vivo, Kochia scoparia
Outline: as §1

giant foxtail = test: Test A postemergence; assay type: in vivo, Setaria faberii; conditions: 0 to 100 scale where 0 is no effect and 100 is complete control
Outline: (§2)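 Visual injury scored 0–100 (100 = complete control) against untreated controls about 10 days after treatment in a greenhouse. Test chemicals, formulated with surfactant in non-phytotoxic solvent, were sprayed on soil preemergence or on 2-10 cm, one- to two-leaf plants postemergence.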

corn [2] = test: Test A postemergence; assay type: in vivo, Zea mays; conditions: 0 to 100 scale where 0 is no effect and 100 is complete control
Outline: as §2

barnyardgrass = test: Test A preemergence; assay type: in vivo, Echinochloa crus-galli
Outline: as §2

pigweed = test: Test C postemergence; assay type: in vivo, Amaranthus retroflexus
Outline: as §1

oilseed rape = test: Test C preemergence; assay type: in vivo, Brassica napus; conditions: for Plant response rating, Oilseed Rape: Preemergence, 31 g ai/ha, scale 0 to 100, 0 no effect, 100 complete control
Outline: as §1

[3] = 16 g ai/ha, preemergence, scale 0 to 100 (0 no effect, 100 complete control)
[4] = 62 g ai/ha, preemergence, scale 0 (no effect) to 100 (complete control)
[5] = 125 g ai/ha, preemergence, scale 0 (no effect) to 100 (complete control)
[6] = Postemergence, 31 g ai/ha, scale 0 to 100 (0 no effect, 100 complete control), 13 to 15 days
[7] = Postemergence, 62 g ai/ha, scale 0 to 100 (0 no effect, 100 complete control)
[8] = 16 g ai/ha, postemergence, visual rating, scale 0 to 100 (0 no effect, 100 complete control), 13 to 15 days
[9] = 125 g ai/ha, 0 to 100 scale where 0 is no effect and 100 is complete control
[10] = 16 g ai/ha, postemergence, 0 is no effect, 100 is complete control
[11] = 125 g ai/ha, postemergence, visual rating, scale 0 to 100 (0 no effect, 100 complete control)

N#Cc1cccc(Oc2ncc(Br)cn2)c1-n1cc(I)cn1 [Compound 88]
Ryegrass, Italian plant response rating (Italian ryegrass; [3]): 0
Ryegrass, Italian plant response rating (Italian ryegrass; [4]): 0
Ryegrass, Italian plant response rating (Italian ryegrass; [5]): 5
Plant response rating, Ryegrass, Italian (Italian ryegrass): 0
Plant response rating (0 to 100), Oat, Wild (wild oat; 125 g ai/ha, postemergence): 10
Plant response rating, Oat, Wild (wild oat; [6]): 5
Plant response rating, Oat, Wild (wild oat; [7]): 10
Corn plant response rating (corn [1]; [8]): 5
Plant response rating (0 to 100), Corn (corn [1]; 125 g ai/ha, postemergence): 10
Plant response rating, Corn (corn [1]; [6]): 10
Plant response rating, Corn (corn [1]; [7]): 10
Ragweed plant response rating (ragweed; [3]): 0
Ragweed plant response rating (ragweed; [4]): 5
Ragweed plant response rating (ragweed; [5]): 60
Plant response rating, Ragweed (ragweed): 0
Plant response rating (0 to 100), Morningglory (morningglory; 125 g ai/ha, postemergence): 95
Plant response rating, Morningglory (morningglory; [6]): 90
Plant response rating, Morningglory (morningglory; [7]): 85
Plant response rating, Ducksalad (Heteranthera limosa): 25
Kochia plant response rating (kochia; [8]): 90
Plant response rating (0 to 100), Kochia (kochia; 125 g ai/ha, postemergence): 100
Plant response rating, Kochia (kochia; [6]): 95
Plant response rating, Kochia (kochia; [7]): 95
Plant response rating, Foxtail, Giant (giant foxtail; 125 g ai/ha): 50
Plant response rating, Foxtail, Giant (giant foxtail; 500 g ai/ha): 80
Plant response rating, Corn (corn [2]; 125 g ai/ha): 30
Plant response rating, Corn (corn [2]; 500 g ai/ha): 50
Plant response rating, Barnyardgrass (barnyardgrass; [9]): 60
Barnyardgrass plant response rating (barnyardgrass; 500 g ai/ha, 0 to 100 scale, 0 no effect, 100 complete control, approx. 10 days): 80
Plant response rating (0 to 100), Pigweed (pigweed; 125 g ai/ha, postemergence): 90
Plant response rating, Pigweed (pigweed; [6]): 85
Plant response rating, Pigweed (pigweed; [7]): 85
Oilseed Rape plant response rating (oilseed rape; [3]): 10
Oilseed Rape plant response rating (oilseed rape; [4]): 70
Oilseed Rape plant response rating (oilseed rape; [5]): 100
Plant response rating, Oilseed Rape (oilseed rape): 100

Clc1cnc(Oc2cccc(Br)c2-n2cc(Br)nn2)nc1 [Compound 129]
Ryegrass, Italian plant response rating (Italian ryegrass; [3]): 0
Ryegrass, Italian plant response rating (Italian ryegrass; [4]): 10
Ryegrass, Italian plant response rating (Italian ryegrass; [5]): 35
Plant response rating, Ryegrass, Italian (Italian ryegrass): 0
Plant response rating (0 to 100), Oat, Wild (wild oat; [10]): 0
Plant response rating, Oat, Wild (wild oat; [11]): 10
Plant response rating, Oat, Wild (wild oat; [7]): 15
Plant response rating (0 to 100), Corn (corn [1]; [10]): 5
Plant response rating, Corn (corn [1]; [11]): 15
Plant response rating, Corn (corn [1]; [7]): 10
Ragweed plant response rating (ragweed; [3]): 0
Ragweed plant response rating (ragweed; [4]): 60
Ragweed plant response rating (ragweed; [5]): 85
Plant response rating, Ragweed (ragweed): 20
Plant response rating (0 to 100), Morningglory (morningglory; [10]): 75
Plant response rating, Morningglory (morningglory; [11]): 85
Plant response rating, Morningglory (morningglory; [7]): 80
Plant response rating, Ducksalad (Heteranthera limosa): 65
Plant response rating (0 to 100), Kochia (kochia; [10]): 90
Plant response rating, Kochia (kochia; [11]): 100
Plant response rating, Kochia (kochia; [7]): 95
Foxtail, Giant plant response rating (giant foxtail; 125 g ai/ha): 90
Plant response rating, Foxtail, Giant (giant foxtail; 500 g ai/ha): 100
Corn plant response rating (corn [2]; 125 g ai/ha): 30
Plant response rating, Corn (corn [2]; 500 g ai/ha): 50
Plant response rating, Barnyardgrass (barnyardgrass; [9]): 70
Barnyardgrass plant response rating (barnyardgrass; 500 g ai/ha, 0 to 100 scale where 0 is no effect and 100 is complete control): 90
Plant response rating (0 to 100), Pigweed (pigweed; [10]): 70
Plant response rating, Pigweed (pigweed; [11]): 90
Plant response rating, Pigweed (pigweed; [7]): 80
Oilseed Rape plant response rating (oilseed rape; [3]): 50
Oilseed Rape plant response rating (oilseed rape; [4]): 100
Oilseed Rape plant response rating (oilseed rape; [5]): 100
Plant response rating, Oilseed Rape (oilseed rape): 85

FC(F)(F)COc1cnn(-c2ccccc2Oc2ncc(Cl)cn2)c1 [Compound 138, 5-chloro-2-[2-[4-(2,2,2-trifluoroethoxy)-1H-pyrazol-1-yl]phenoxy]pyrimidine]
pest or weed control at 16 g/ha (Italian ryegrass; Lolium multiflorum, pre-emergence, 16 g ai/ha, preemergence, scale 0 to 100 (0 no effect, 100 complete control), read-out: Ryegrass, Italian plant response rating): 0%
pest or weed control at 62 g/ha (Italian ryegrass; Lolium multiflorum, pre-emergence, 62 g ai/ha, preemergence, scale 0 (no effect) to 100 (complete control), read-out: Ryegrass, Italian plant response rating): 20%
pest or weed control at 125 g/ha (Italian ryegrass; Lolium multiflorum, pre-emergence, 125 g ai/ha, preemergence, scale 0 (no effect) to 100 (complete control), read-out: Ryegrass, Italian plant response rating): 60%
pest or weed control at 16 g/ha (wild oat; Avena fatua, post-emergence, 16 g ai/ha, postemergence, 0 is no effect, 100 is complete control, read-out: Plant response rating (0 to 100), Oat, Wild): 5%
pest or weed control at 125 g/ha (wild oat; Avena fatua, post-emergence, 125 g ai/ha, postemergence, visual rating, scale 0 to 100 (0 no effect, 100 complete control), read-out: Plant response rating, Oat, Wild): 10%
pest or weed control at 62 g/ha (wild oat; Avena fatua, post-emergence, Postemergence, 62 g ai/ha, scale 0 to 100 (0 no effect, 100 complete control), read-out: Plant response rating, Oat, Wild): 5%
plant injury at 16 g/ha (corn [1]; Zea mays, post-emergence, 16 g ai/ha, postemergence, 0 is no effect, 100 is complete control, read-out: Plant response rating (0 to 100), Corn): 5%
Corn plant response rating (crop injury, 0 = no effect, 100 = complete kill) at 125 g/ha (corn [1]; Zea mays, post-emergence, 125 g ai/ha, postemergence, visual rating, scale 0 to 100 (0 no effect, 100 complete control)): 10%
Corn plant response rating (crop injury, 0 = no effect, 100 = complete kill) at 62 g/ha (corn [1]; Zea mays, post-emergence, Postemergence, 62 g ai/ha, scale 0 to 100 (0 no effect, 100 complete control)): 5%
pest or weed control at 16 g/ha (ragweed; Ambrosia artemisiifolia, pre-emergence, 16 g ai/ha, preemergence, scale 0 to 100 (0 no effect, 100 complete control), read-out: Ragweed plant response rating): 0%
pest or weed control at 62 g/ha (ragweed; Ambrosia artemisiifolia, pre-emergence, 62 g ai/ha, preemergence, scale 0 (no effect) to 100 (complete control), read-out: Ragweed plant response rating): 5%
pest or weed control at 125 g/ha (ragweed; Ambrosia artemisiifolia, pre-emergence, 125 g ai/ha, preemergence, scale 0 (no effect) to 100 (complete control), read-out: Ragweed plant response rating): 10%
pest or weed control at 16 g/ha (morningglory; Ipomoea, post-emergence, 16 g ai/ha, postemergence, 0 is no effect, 100 is complete control, read-out: Plant response rating (0 to 100), Morningglory): 65%
pest or weed control at 125 g/ha (morningglory; Ipomoea, post-emergence, 125 g ai/ha, postemergence, visual rating, scale 0 to 100 (0 no effect, 100 complete control), read-out: Plant response rating, Morningglory): 85%
pest or weed control at 62 g/ha (morningglory; Ipomoea, post-emergence, Postemergence, 62 g ai/ha, scale 0 to 100 (0 no effect, 100 complete control), read-out: Plant response rating, Morningglory): 65%
pest or weed control at 250 g/ha (Heteranthera limosa; Heteranthera limosa, read-out: Plant response rating, Ducksalad): 90%
pest or weed control at 16 g/ha (kochia; Bassia scoparia, post-emergence, 16 g ai/ha, postemergence, 0 is no effect, 100 is complete control, read-out: Plant response rating (0 to 100), Kochia): 80%
pest or weed control at 125 g/ha (kochia; Bassia scoparia, post-emergence, 125 g ai/ha, postemergence, visual rating, scale 0 to 100 (0 no effect, 100 complete control), read-out: Plant response rating, Kochia): 95%
pest or weed control at 62 g/ha (kochia; Bassia scoparia, post-emergence, Postemergence, 62 g ai/ha, scale 0 to 100 (0 no effect, 100 complete control), read-out: Plant response rating, Kochia): 95%
pest or weed control at 125 g/ha (giant foxtail; Setaria faberi, post-emergence, 240 h, 125 g ai/ha, read-out: Foxtail, Giant plant response rating): 90%
pest or weed control at 500 g/ha (giant foxtail; Setaria faberi, post-emergence, 240 h, 500 g ai/ha, read-out: Plant response rating, Foxtail, Giant): 100%
plant injury at 125 g/ha (corn [2]; Zea mays, post-emergence, 240 h, 125 g ai/ha, read-out: Corn plant response rating): 60%
Corn plant response rating (crop injury, 0 = no effect, 100 = complete kill) at 500 g/ha (corn [2]; Zea mays, post-emergence, 240 h, 500 g ai/ha): 90%
pest or weed control at 125 g/ha (barnyardgrass; Echinochloa crus-galli, pre-emergence, 240 h, 125 g ai/ha, 0 to 100 scale where 0 is no effect and 100 is complete control, read-out: Plant response rating, Barnyardgrass): 80%
pest or weed control at 500 g/ha (barnyardgrass; Echinochloa crus-galli, pre-emergence, 240 h, 500 g ai/ha, 0 to 100 scale where 0 is no effect and 100 is complete control, read-out: Barnyardgrass plant response rating): 100%
pest or weed control at 16 g/ha (pigweed; Amaranthus retroflexus, post-emergence, 16 g ai/ha, postemergence, 0 is no effect, 100 is complete control, read-out: Plant response rating (0 to 100), Pigweed): 60%
pest or weed control at 125 g/ha (pigweed; Amaranthus retroflexus, post-emergence, 125 g ai/ha, postemergence, visual rating, scale 0 to 100 (0 no effect, 100 complete control), read-out: Plant response rating, Pigweed): 80%
pest or weed control at 62 g/ha (pigweed; Amaranthus retroflexus, post-emergence, Postemergence, 62 g ai/ha, scale 0 to 100 (0 no effect, 100 complete control), read-out: Plant response rating, Pigweed): 80%
plant injury at 16 g/ha (oilseed rape; Brassica napus, pre-emergence, 16 g ai/ha, preemergence, scale 0 to 100 (0 no effect, 100 complete control), read-out: Oilseed Rape plant response rating): 80%
plant injury at 62 g/ha (oilseed rape; Brassica napus, pre-emergence, 62 g ai/ha, preemergence, scale 0 (no effect) to 100 (complete control), read-out: Oilseed Rape plant response rating): 100%
plant injury at 125 g/ha (oilseed rape; Brassica napus, pre-emergence, 125 g ai/ha, preemergence, scale 0 (no effect) to 100 (complete control), read-out: Oilseed Rape plant response rating): 100%
